Consider 5 compounds from US8449898B2 (priority 2007, dated 2013).

Read-outs that look alike come from different tables or passages of the source.

Assay [1] relates to Pseudoperonospora cubensis (the causal agent of cucumber downy mildew). The assay can be described thus: Test B: cucumber downy mildew, preventive spray on cucumber seedlings. In kind it is in vivo.
Assay [2] has as its system Phytophthora infestans (the causal agent of tomato late blight). The assay can be described thus: whole plant or invertebrate. It is filed as in vivo. As to conditions: for TLB Obsd: component (b) alone; for TLB Obsd (disease control rating): Table B.
Setting [3] is: Pseudoperonospora cubensis, component (b) alone 0.08 ppm (Compound 1 0 ppm), read-out: CDM Obsd.
[4] abbreviates: Pseudoperonospora cubensis, component (b) alone 0.4 ppm (Compound 1 0 ppm), read-out: CDM Obsd.
The mark [5] stands for this setting: Pseudoperonospora cubensis, component (b) alone 2 ppm (Compound 1 0 ppm), read-out: CDM Obsd.
[6] abbreviates: Pseudoperonospora cubensis, component (b) alone 10 ppm (Compound 1 0 ppm), read-out: CDM Obsd.
Setting [7] is: Pseudoperonospora cubensis, component (b) alone 40 ppm (Compound 1 0 ppm), read-out: CDM Obsd.
[8] abbreviates: Pseudoperonospora cubensis, component (b) alone, 2 ppm, read-out: CDM Obsd (observed effect, cucumber downy mildew).
Where [9] appears, read: Pseudoperonospora cubensis, component (b) alone, 10 ppm, read-out: CDM Obsd (observed effect, cucumber downy mildew).
Setting [10] is: Pseudoperonospora cubensis, component (b) alone, 40 ppm, read-out: CDM Obsd (observed effect, cucumber downy mildew).
Where [11] appears, read: Phytophthora infestans, read-out: TLB Obsd (observed effect, tomato late blight), component (b) alone, 2 ppm.
[12] abbreviates: Phytophthora infestans, read-out: TLB Obsd (observed effect, tomato late blight), component (b) alone, 10 ppm.
The mark [13] stands for this setting: Phytophthora infestans, read-out: TLB Obsd (observed effect, tomato late blight), component (b) alone, 40 ppm.
Where [14] appears, read: component (b) alone 0.08 ppm (Compound 1 0 ppm).
Setting [15] is: component (b) alone 0.4 ppm (Compound 1 0 ppm).
Where [16] appears, read: component (b) alone 2 ppm (Compound 1 0 ppm).
Where [17] appears, read: component (b) alone 10 ppm (Compound 1 0 ppm).

Consider `COc1ccc(C(=CC(=O)N2CCOCC2)c2ccc(Cl)cc2)cc1OC` [dimethomorph], for which the pest or weed control at 0.08 ppm in assay [1] (Pseudoperonospora cubensis, Table B, component (b) alone 0.08 ppm, read-out: CDM Obsd (disease control rating)) was determined as 47%; in assay [1] (Pseudoperonospora cubensis, component (b) alone, 0.08 ppm, read-out: CDM Obsd (observed effect, cucumber downy mildew)) it was 52%; in assay [2] (Phytophthora infestans, read-out: TLB Obsd (disease control rating), Table B, component (b) alone 0.08 ppm) it was 9%; in assay [2] (Phytophthora infestans, read-out: TLB Obsd (observed effect, tomato late blight), component (b) alone, 0.08 ppm), 31%. Besides, the pest or weed control at 0.4 ppm stood at 57% in assay [1] (Pseudoperonospora cubensis, Table B, component (b) alone 0.4 ppm, read-out: CDM Obsd (disease control rating)); 54% in assay [1] (Pseudoperonospora cubensis, component (b) alone, 0.4 ppm, read-out: CDM Obsd (observed effect, cucumber downy mildew)); 9% in assay [2] (Phytophthora infestans, read-out: TLB Obsd (disease control rating), Table B, component (b) alone 0.4 ppm); 62% in assay [2] (Phytophthora infestans, read-out: TLB Obsd (observed effect, tomato late blight), component (b) alone, 0.4 ppm). Moreover, the pest or weed control at 2 ppm turned out to be 70% in assay [1] (Pseudoperonospora cubensis, Table B, component (b) alone 2 ppm, read-out: CDM Obsd (disease control rating)); 88% in assay [1] (setting [8]); 47% in assay [2] (Phytophthora infestans, read-out: TLB Obsd (disease control rating), Table B, component (b) alone 2 ppm); 95% in assay [2] (setting [11]). The pest or weed control at 10 ppm in assay [1] (Pseudoperonospora cubensis, Table B, component (b) alone 10 ppm, read-out: CDM Obsd (disease control rating)) turned out to be 100%; in assay [1] (setting [9]), 100%; in assay [2] (Phytophthora infestans, read-out: TLB Obsd (disease control rating), Table B, component (b) alone 10 ppm), 86%; in assay [2] (setting [12]), 88%. For the same compound, the pest or weed control at 40 ppm was determined as 100% in assay [1] (Pseudoperonospora cubensis, Table B, component (b) alone 40 ppm, read-out: CDM Obsd (disease control rating)); 100% in assay [1] (setting [10]); 99% in assay [2] (Phytophthora infestans, read-out: TLB Obsd (disease control rating), Table B, component (b) alone 40 ppm); 100% in assay [2] (setting [13]). In addition, the pest or weed control at 0.08 µg/mL in assay [1] (setting [3]) came out at 26%. The pest or weed control at 0.4 µg/mL in assay [1] (setting [4]) worked out at 26%. Further, the pest or weed control at 2 µg/mL in assay [1] (setting [5]) amounted to 83%. Further, in assay [1] (setting [6]), the pest or weed control at 10 µg/mL amounted to 100%. For the same compound, in assay [1] (setting [7]), the pest or weed control at 40 µg/mL was determined as 100%.

As to `CCNc1nc(CC)c(C(=O)NC(C#N)c2cccs2)s1` (stereo not drawn) [ethaboxam], the “CDM Obsd” value in assay [1] (component (b) alone 0.016 ppm (Compound 1 0 ppm)) is recorded as 47%; in assay [1] (setting [14]), 47%; in assay [1] (setting [15]) it was 47%; in assay [1] (setting [16]), 82%; in assay [1] (setting [17]), 100%; in assay [1] (component (b) alone, 0.016 ppm), 0%. Further, the “CDM Obsd” value in assay [1] (component (b) alone, 0.08 ppm) was found to be 0%; in assay [1] (component (b) alone, 0.4 ppm), 41%; in assay [1] (component (b) alone, 2 ppm), 100%; in assay [1] (component (b) alone, 10 ppm), 100%. The “TLB Obsd” value in assay [2] (0.016 ppm) came out at 22%; in assay [2] (0.08 ppm) it was 15%; in assay [2] (0.4 ppm), 95%; in assay [2] (2 ppm) it was 87%; in assay [2] (10 ppm) it was 100%.

Consider `CSC1=N[C@@](C)(c2ccccc2)C(=O)N1Nc1ccccc1` [fenamidone], for which the pest or weed control at 0.08 µg/mL in assay [1] (setting [3]) was 65%. Further, the pest or weed control at 0.4 µg/mL in assay [1] (setting [4]) amounted to 47%. Also, in assay [1] (setting [5]), the pest or weed control at 2 µg/mL was found to be 82%. Moreover, the pest or weed control at 10 µg/mL in assay [1] (setting [6]) was 100%. Besides, the pest or weed control at 40 µg/mL in assay [1] (setting [7]) is 100%. Besides, the pest or weed control at 0.08 ppm in assay [1] (Pseudoperonospora cubensis, component (b) alone, 0.08 ppm, read-out: CDM Obsd) came to 0%; in assay [2] (Phytophthora infestans, read-out: TLB Obsd, component (b) alone, 0.08 ppm), 22%. Moreover, the pest or weed control at 0.4 ppm in assay [1] (Pseudoperonospora cubensis, component (b) alone, 0.4 ppm, read-out: CDM Obsd) is 0%; in assay [2] (Phytophthora infestans, read-out: TLB Obsd, component (b) alone, 0.4 ppm), 30%. For the same compound, the pest or weed control at 2 ppm amounted to 85% in assay [1] (Pseudoperonospora cubensis, component (b) alone, 2 ppm, read-out: CDM Obsd) and 99% in assay [2] (Phytophthora infestans, read-out: TLB Obsd, component (b) alone, 2 ppm). Further, the pest or weed control at 10 ppm turned out to be 100% in assay [1] (Pseudoperonospora cubensis, component (b) alone, 10 ppm, read-out: CDM Obsd) and 100% in assay [2] (Phytophthora infestans, read-out: TLB Obsd, component (b) alone, 10 ppm). Moreover, the pest or weed control at 40 ppm turned out to be 100% in assay [1] (Pseudoperonospora cubensis, component (b) alone, 40 ppm, read-out: CDM Obsd) and 100% in assay [2] (Phytophthora infestans, read-out: TLB Obsd, component (b) alone, 40 ppm).

For `O=[N+]([O-])c1cc(C(F)(F)F)c(Cl)c([N+](=O)[O-])c1Nc1ncc(C(F)(F)F)cc1Cl` [fluazinam], the pest or weed control at 0.4 ppm in assay [1] (Pseudoperonospora cubensis, Table C, component (b) alone 0.4 ppm, read-out: CDM Obsd (disease control rating)) is 57%; in assay [2] (Phytophthora infestans, read-out: TLB Obsd (disease control rating), Table C, component (b) alone 0.4 ppm) it was 17%. Also, the pest or weed control at 2 ppm is 60% in assay [1] (Pseudoperonospora cubensis, Table C, component (b) alone 2 ppm, read-out: CDM Obsd (disease control rating)); 89% in assay [1] (setting [8]); 40% in assay [2] (Phytophthora infestans, read-out: TLB Obsd (disease control rating), Table C, component (b) alone 2 ppm); 71% in assay [2] (setting [11]). The pest or weed control at 10 ppm in assay [1] (Pseudoperonospora cubensis, Table C, component (b) alone 10 ppm, read-out: CDM Obsd (disease control rating)) stood at 91%; in assay [1] (setting [9]), 98%; in assay [2] (Phytophthora infestans, read-out: TLB Obsd (disease control rating), Table C, component (b) alone 10 ppm), 80%; in assay [2] (setting [12]), 99%. Besides, the pest or weed control at 40 ppm was found to be 100% in assay [1] (Pseudoperonospora cubensis, Table C, component (b) alone 40 ppm, read-out: CDM Obsd (disease control rating)); 100% in assay [1] (setting [10]); 98% in assay [2] (Phytophthora infestans, read-out: TLB Obsd (disease control rating), Table C, component (b) alone 40 ppm); 99% in assay [2] (setting [13]). Also, the pest or weed control at 200 ppm in assay [1] (Pseudoperonospora cubensis, Table C, component (b) alone 200 ppm, read-out: CDM Obsd (disease control rating)) came to 100%; in assay [1] (Pseudoperonospora cubensis, component (b) alone, 200 ppm, read-out: CDM Obsd (observed effect, cucumber downy mildew)), 100%; in assay [2] (Phytophthora infestans, read-out: TLB Obsd (disease control rating), Table C, component (b) alone 200 ppm) it was 100%; in assay [2] (Phytophthora infestans, read-out: TLB Obsd (observed effect, tomato late blight), component (b) alone, 200 ppm), 100%. Also, the pest or weed control at 0.4 µg/mL in assay [1] (setting [4]) is 47%. The pest or weed control at 2 µg/mL in assay [1] (setting [5]) amounted to 57%. Also, the pest or weed control at 10 µg/mL in assay [1] (setting [6]) stood at 92%. Also, in assay [1] (setting [7]), the pest or weed control at 40 µg/mL came to 100%. Besides, the pest or weed control at 200 µg/mL in assay [1] (Pseudoperonospora cubensis, component (b) alone 200 ppm (Compound 1 0 ppm), read-out: CDM Obsd) is 100%. Besides, the pest or weed control at 0.04 ppm is 56% in assay [1] (Pseudoperonospora cubensis, component (b) alone, 0.04 ppm, read-out: CDM Obsd (observed effect, cucumber downy mildew)) and 23% in assay [2] (Phytophthora infestans, read-out: TLB Obsd (observed effect, tomato late blight), component (b) alone, 0.04 ppm).

In the case of `O=C(NCc1ncc(C(F)(F)F)cc1Cl)c1c(Cl)cccc1Cl` [fluopicolide], the “CDM Obsd (disease control rating)” value in assay [1] (Table B, component (b) alone 0.08 ppm) was determined as 47%; in assay [1] (Table B, component (b) alone 0.4 ppm), 47%; in assay [1] (Table B, component (b) alone 2 ppm) it was 94%; in assay [1] (Table B, component (b) alone 10 ppm), 100%; in assay [1] (Table B, component (b) alone 40 ppm), 100%. Further, the “CDM Obsd” value in assay [1] (setting [14]) came out at 33%; in assay [1] (setting [15]), 79%; in assay [1] (setting [16]) it was 96%; in assay [1] (setting [17]), 100%; in assay [1] (component (b) alone 40 ppm (Compound 1 0 ppm)) it was 100%; in assay [1] (component (b) alone, 0.08 ppm) it was 0%. Also, the “CDM Obsd” value was determined as 0% in assay [1] (component (b) alone, 0.4 ppm); 83% in assay [1] (component (b) alone, 2 ppm); 100% in assay [1] (component (b) alone, 10 ppm); 100% in assay [1] (component (b) alone, 40 ppm). The “TLB Obsd (disease control rating)” value in assay [2] (component (b) alone 0.08 ppm) came out at 26%; in assay [2] (component (b) alone 0.4 ppm) it was 9%; in assay [2] (component (b) alone 2 ppm), 59%; in assay [2] (component (b) alone 10 ppm), 100%; in assay [2] (component (b) alone 40 ppm), 100%. The “TLB Obsd” value in assay [2] (0.08 ppm) came out at 7%; in assay [2] (0.4 ppm), 0%; in assay [2] (2 ppm) it was 90%; in assay [2] (10 ppm), 100%; in assay [2] (40 ppm), 100%.
